Assay results: US7955623B2, “Pharmaceutical preparations for treating inflammatory diseases” (priority 2008, dated 2011)
“Also recorded” adds a separate entry of the source. Peptide text beside a SMILES is read from it. * marks the point of attachment. Cbz = O=C(OCc1ccccc1)*; OtBu = CC(C)(C)O*

Tested on: NF-κB
Test: Electrophoretic mobility shift assay of TNF-induced NF-κB activation in cell lines
Format: cell-based, human
Details: for Effect on TNF-induced NF-κB-activity of ozonized substance in phosphate-buffered saline: medium concentration in PBS, 100% ozonation state, 1 hr preincubation, TNF 1 ng/mL 15 min; for Inhibition of TNF-induced NF-κB-activity: preincubation 10 μM, 1 hr, n=3
Procedure: A) BHY cells were preincubated with serum-free O3-medium (15 min; the ozonation state is indicated in %) before TNF was added (20 ng/mL, 45 min) and electrophoretic mobility shift assay was performed (NF-κB and Sp-1 binding). The asterisk marks a control reaction in which a 100-fold concentration of unlabeled consensus oligonucleotide was added. B) Cells were treated with O3-medium (HGF-1, 45 min; HeLa, 1 hr) followed by stimulation with TNF (HGF-1, 5 ng/mL for 45 min; HeLa, 1 ng/mL for 15 min). NF-κB-activity normalized to Sp-1 is shown (densitometric analysis). NF-κB-activity after TNF stimulation following preincubation with non-ozonized medium was defined as 100% (dashed line) (n=3, mean±SD). C) Periodontal ligament tissue debris separated into equal-sized portions was incubated (1 hr, 37° C.) with serum-free non-ozonized medium (indicated by “-”) or O3-medium (100% ozonation state, indicated by “+”) followed by 2 hr incubation in fresh medium without ozone. The samples were shock frozen, homogenized and nuclear extracts prepared. Left: Electrophoretic mobility shift assays were performed (NF-κB and Sp-1 binding). The asterisk marks a control reaction in which a 100-fold concentration of unlabeled consensus oligonucleotide was added. Right: Densitometrically measured NF-κB-activity was normalized to Sp-1 (n=3, mean±SD). […] A) HeLa cells were incubated with O3-phosphate-buffered saline (1 hr) followed by TNF stimulation (1 ng/mL, 15 min). The ozonation state is indicated in %. Electrophoretic mobility shift assay was performed to determine NF-κB-activity as well as Sp-1 binding. B) Cells were preincubated (1 hr) with non-ozonized or ozonized amino acids (medium concentration) dissolved in phosphate-buffered saline (100% ozonation state) followed by stimulation with TNF (1 ng/mL, 15 min). The activation of NF-κB was determined by electrophoretic mobility shift assay. C) Densitometric analysis of the NF-κB-activity normalized to Sp-1 is shown (n=3, mean±SD). NF-κB-activity of cells preincubated with non-ozonized amino acids in phosphate-buffered saline and stimulated with TNF was defined as 100% (dashed line). D) HeLa cells were preincubated with non-ozonized or ozonized glucose (medium concentration) followed by TNF stimulation. The NF-κB-activity compared to Sp-1 binding was determined by electrophoretic mobility shift assay. […] The proteasome inhibitor PSI was from Calbiochem (Darmstadt, Germany). A potential toxicity of culture conditions was monitored by cell morphology/count, trypan-blue-exclusion and the Luminescent-Cell-Viability-Assay (Promega, Mannheim, Germany). […] Aqueous ozone was applied to the cells in form of ozonized medium without fetal calf serum (O3-medium) or ozonized phosphate-buffered saline (O3-phosphate-buffered saline) without/with 1 g/L amino acids or 2 g/L glucose. These solutions were treated with gaseous ozone (75 μg/mL, 15 min) using an ozone generator (Ozonosan-photonic, Dr. […], Germany). This condition, which applied to water would result in a final ozone concentration of 20 μg/mL (saturation point), was defined as the 100% ozonation state. For dose response experiments, the solutions were accordingly diluted. The ozone gas concentration was monitored by a photometer integrated in the ozone generator and confirmed by another ozone gas detector (GM-6000-NZL, Anseros, Tubingen, Germany). The ozone concentrations of the respective aqueous solutions were monitored photometrically ([…], England). […] The prototypic immunoglobulin κ-chain oligonucleotide was used as a probe and labeled with the Klenow fragment of DNA polymerase I (Roche, Penzberg, Germany) together with [α-^32P]dCTP (PerkinElmer-LifeSciences, Brussels, Belgium). The Sp-1 consensus oligonucleotide (Promega) was labeled with [γ-^32P]ATP (PerkinElmer-LifeSciences) and T4-polynucleotide-kinase (Roche). Samples were run on non-denaturing 4% polyacrylamide gels and analyzed by autoradiography.

| Structure (SMILES) | Effect on TNF-induced NF-κB-activity of ozonized substance in phosphate-buffered saline | Inhibition of TNF-induced NF-κB-activity (BHY cells) | Inhibition of TNF-induced NF-κB-activity (HeLa cells) |
| --- | --- | --- | --- |
| N[C@@H](Cc1c[nH]c2ccccc12)C(=O)O [tryptophan] | blocked the NF-κB signal almost completely; also recorded: most effective | – | – |
| N[C@@H](CS)C(=O)O [cysteine] | blocked the NF-κB signal almost completely; also recorded: most effective | – | – |
| C[C@H](N)C(=O)O [alanine] | slight reduction | – | – |
| NCC(=O)O [glycine] | did not have any effect | – | – |
| CC[C@H](C)[C@H](NC(=O)OCc1ccccc1)C(=O)N[C@@H](CCC(=O)OC(C)(C)C)C(=O)N[C@@H](C)C(=O)N[C@H](C=O)CC(C)C [PSI, reference compound] (Cbz-IE(OtBu)AL-aldehyde) | – | 68±7% | 75±6% |
| CSCC[C@H](N)C(=O)O [methionine] | clear inhibition | – | – |
